Reference: patent US11071735B2, “Treatment of inflammatory conditions and autoimmune diseases with glucose uptake inhibitors” (Kadmon Corporation, LLC, priority 2017, dated 2021)

Tests used:
Type in all cases: cell-based
GLUT1 = biological target: T1, GLUT1 (Homo sapiens, UniProt P11166); assay: glycolysis assay in DLD1 WT cells (rely on GLUT1); details: for IC50: DLD1-WT cells, 10 μM oligomycin, one hour
T1 construct: endogenous in cells; host or cells: DLD1 WT cancer cells
T1 sequence (P11166 1-492): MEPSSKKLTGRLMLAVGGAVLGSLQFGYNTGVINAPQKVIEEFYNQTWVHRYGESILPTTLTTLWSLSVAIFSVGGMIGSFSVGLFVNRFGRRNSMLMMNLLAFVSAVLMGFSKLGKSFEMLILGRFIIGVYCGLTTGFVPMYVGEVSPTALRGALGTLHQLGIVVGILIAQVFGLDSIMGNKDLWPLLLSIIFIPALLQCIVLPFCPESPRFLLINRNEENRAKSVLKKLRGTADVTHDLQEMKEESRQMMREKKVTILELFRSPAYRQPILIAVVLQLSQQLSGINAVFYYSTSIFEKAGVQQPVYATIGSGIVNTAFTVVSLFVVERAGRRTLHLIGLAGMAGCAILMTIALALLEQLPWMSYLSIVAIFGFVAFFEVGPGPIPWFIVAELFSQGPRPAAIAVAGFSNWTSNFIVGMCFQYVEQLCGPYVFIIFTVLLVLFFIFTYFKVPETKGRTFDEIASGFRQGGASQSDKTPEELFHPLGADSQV
Description: (§1) Cells were treated with GLUT inhibitors plus oligomycin and subsequently ATP levels were determined using Cell Titer Glo. […] FIG. 1B reports the IC50 of glycolysis inhibition for selected compounds.
(§2) Accordingly, we have investigated the use of inhibitors of GLUT transporters against activated pro-inflammatory immune cells, including but not limited to activated human CD4+ T cells. In order to understand what GLUT transporters are required to sustain glycolysis in activated T cells, we first utilized the syngeneic cancer cell lines DLD1 WT and DLD GLUT1−/− that rely on GLUT1 and GLUT3 expression, respectively, for glucose transport. Within this system, we have identified small molecules that simultaneously have the property of inhibiting both GLUT1 and GLUT3 mediated glucose transport. In addition, we have confirmed the GLUT1-selective nature of a published small molecule inhibitor of GLUT1 (Chem Med Chem. 2016 Oct. 19; 11(20):2261-2271).
(§3) Determination of glucose uptake/GLUT activity (glycolysis assay): HT1080 cells, DLD1 cells (WT and GLUT1−/−) and human CD4+ T cells were plated in 96-well plates. Cells were exposed to the combination of 10 μM Oligomycin (to block mitochondrial-derived ATP) and the glucose uptake inhibitors disclosed herein for one-hour, after which glycolytically-derived ATP was measured with the Cell Titer-Glo assay kit (Promega). Dose-response curves of the glucose uptake inhibitors disclosed herein were used to determine the IC50 for GLUT activity.

GLUT3 = biological target: T2, GLUT3 (Homo sapiens, UniProt P11169); assay: glycolysis assay in DLD1 GLUT1−/− cells (rely on GLUT3); details: DLD1-KO (GLUT1−/−) cells; 10 μM oligomycin, one hour
T2 construct: endogenous in cells; host or cells: DLD1 GLUT1−/− (knock-out) cancer cells
T2 sequence (P11169 1-496): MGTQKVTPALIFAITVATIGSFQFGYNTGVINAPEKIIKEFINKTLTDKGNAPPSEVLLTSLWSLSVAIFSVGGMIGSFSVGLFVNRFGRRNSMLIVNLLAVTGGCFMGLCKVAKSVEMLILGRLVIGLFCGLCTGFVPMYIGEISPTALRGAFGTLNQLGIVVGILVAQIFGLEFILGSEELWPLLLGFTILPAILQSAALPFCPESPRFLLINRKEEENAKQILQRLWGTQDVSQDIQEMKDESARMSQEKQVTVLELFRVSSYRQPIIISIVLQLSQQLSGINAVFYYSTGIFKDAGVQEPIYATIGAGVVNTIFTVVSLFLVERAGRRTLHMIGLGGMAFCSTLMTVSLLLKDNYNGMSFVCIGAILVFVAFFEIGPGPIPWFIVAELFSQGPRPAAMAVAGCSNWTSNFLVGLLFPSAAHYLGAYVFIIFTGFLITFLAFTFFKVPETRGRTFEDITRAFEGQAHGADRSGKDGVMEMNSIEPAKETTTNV
Description: as §1, §2, §3

GLUT = assay: glycolysis assay (oligomycin + Cell Titer-Glo ATP readout) in HT1080 cells; details: 10 μM oligomycin, one hour, glycolytically-derived ATP
Text: The combination of inhibitors of both oxidative phosphorylation and glycolysis synergistically suppress cellular ATP levels. Therefore, our assay utilizes the combination of our glucose uptake inhibitors with oligomycin, a well-characterized inhibitor of ATP synthase. Because oligomycin inhibits ATP derived from oxidative phosphorylation, any remaining ATP production is derived from glycolysis. By reading out cellular ATP levels using the Promega
Titer Glo kit, we can assess the extent of glycolysis inhibition by our glucose uptake inhibitors. Using this experimental set-up in HT1080 cancer cells, we determined the IC50 of glycolysis inhibition for the compounds.
as §3

[1] = test system: activated human CD4+ T cells; assay: one-hour glycolysis assay in activated human CD4 T cells; details: human CD4 T cells activated 24 hours, one hour treatment plus oligomycin
Description: In FIG. 2A, human CD4 positive T cells were activated for 24 hours prior to a one hour treatment with the indicated glucose uptake inhibitors combined with 10 μM oligomycin. In FIG. 2B, human CD4 T cells were activated for 48 hours in the presence of the glucose uptake inhibitors. IL-17 and IL-2 secreted into the supernatant was measured by ELISA (R&D systems). Proliferation was measured by Cell Titer Glo (Promega). FIG. 2C lists the IC50 values (μM) for the glucose uptake inhibitors against activated T cell glycolysis, IL-17 secretion and proliferation. […] In FIG. 3A, human CD4 positive T cells were activated for 24 hours prior to a one hour treatment with Bay876 combined with 1 μM oligomycin. In FIG. 3B, human CD4 T cells were activated for 48 hours in the presence of Bay876. L-17 secreted into the supernatant was measured by ELISA (R&D systems). Proliferation was measured by Cell Titer Glo (Promega). […] At this time, secreted IL-17, IL-2 and relative cell number were measured (FIG. 2B, right panel). […] Cells were exposed to the combination of 10 μM Oligomycin (to block mitochondrial-derived ATP) and the glucose uptake inhibitors disclosed herein for one-hour, after which glycolytically-derived ATP was measured with the Cell Titer-Glo assay kit (Promega). […] IL-17 levels were measured by ELISA (R&D systems, Human IL-17 Quantikine ELISA kit). Proliferation was measured by Cell Titer Glo (Promega). […]

Row | SMILES | IC50 (GLUT1) [nM] | IC50 (GLUT3) [nM] | IC50 (GLUT) [nM] | GLUT selectivity (inhibition of glycolysis) (GLUT1; DLD1 WT versus DLD1 GLUT1−/− cells) | glycolysis in activated T cells [1]
1 | CC[C@@H](C)NC(=O)COc1cccc(-c2nc(Nc3ccc(-c4cn[nH]c4)cc3)c3cc(F)ccc3n2)c1 [Ex. 51, (R)-2-(3-(4-((4-(1H-pyrazol-4-yl)phenyl)amino)-6-fluoroquinazolin-2-yl)phenoxy)-N-(sec-butyl)acetamide] | 106 | 125 | 113 | – | –
2 | CCC(C)NC(=O)COc1cccc(-c2nc(Nc3ccc(-c4cn[nH]c4)cc3)c3ccc(F)cc3n2)c1 (centres unmarked) [Ex. 53, 2-(3-(4-((4-(1H-pyrazol-4-yl)phenyl)amino)-7-fluoroquinazolin-2-yl)phenoxy)-N-(sec-butyl)acetamide] | 222 | 271 | 283 | – | –
3 | CC[C@@H](C)NC(=O)COc1cccc(-c2nc(Nc3ccc(-c4cn[nH]c4)cc3)c3ccc(F)cc3n2)c1 [Ex. 55, (R)-2-(3-(4-((4-(1H-pyrazol-4-yl)phenyl)amino)-7-fluoroquinazolin-2-yl)phenoxy)-N-(sec-butyl)acetamide] | 192 | 238 | 190 | – | –
4 | CCOc1ccc2nc(-c3cccc(OCC(=O)NC(C)C)c3)nc(Nc3ccc(-c4cc[nH]n4)cc3)c2c1 [Ex. 28, 2-(3-(4-((4-(1H-Pyrazol-3-yl)phenyl)amino)-6-ethoxyquinazolin-2-yl)phenoxy)-N-isopropylacetamide] | 496 | 105 | 545 | – | –
5 | CC(C)NC(=O)COc1cccc(-c2nc(Nc3ccc(-c4cn[nH]c4)cc3)c3cc(OCCF)ccc3n2)c1 [Ex. 40, 2-(3-(4-((4-(1H-Pyrazol-4-yl)phenyl)amino)-6-(2-fluoroethoxy)quinazolin-2-yl)phenoxy)-N-isopropylacetamide] | 160 | 68.3 | 98 | – | –
6 | Cc1c(NC(=O)c2cc(C(N)=O)nc3cc(F)ccc23)c(C(F)(F)F)nn1Cc1ccc(C#N)cc1 [Bay876] | – | – | – | selective for GLUT1 | neither inhibited glycolysis

The next lines start with results.

Row | IC50 (GLUT1) [nM] | IC50 (GLUT3) [nM] | IC50 (GLUT) [nM] | GLUT selectivity (inhibition of glycolysis) (GLUT1; DLD1 WT versus DLD1 GLUT1−/− cells) | SMILES | glycolysis in activated T cells [1]
7 | 257 | 66.1 | 169 | – | CCOc1ccc2nc(-c3cccc(OCC(=O)NC4CC(F)(F)C4)c3)nc(Nc3ccc(-c4cn[nH]c4)cc3)c2c1 [Ex. 19, 2-(3-(4-((4-(1H-pyrazol-4-yl)phenyl)amino)-6-ethoxyquinazolin-2-yl)phenoxy)-N-(3,3-difluorocyclobutyl)acetamide] | –
8 | 59.6 | 33.6 | 44 | – | CCOc1ccc2nc(-c3cccc(OCC(=O)NC(C)(C)C)c3)nc(Nc3ccc(-c4cn[nH]c4)cc3)c2c1 [Ex. 3, 2-(3-(4-((4-(1H-pyrazol-4-yl)phenyl)amino)-6-ethoxyquinazolin-2-yl)phenoxy)-N-(tert-butyl)acetamide] | –
9 | 91.2 | 159 | 123 | – | CCC(C)NC(=O)COc1cccc(-c2nc(Nc3ccc(-c4cn[nH]c4)cc3)c3cc(F)ccc3n2)c1 (centres unmarked) [Ex. 44, 2-(3-(4-((4-(1H-pyrazol-4-yl)phenyl)amino)-6-fluoroquinazolin-2-yl)phenoxy)-N-(sec-butyl)acetamide] | –
10 | 116 | 130 | 137 | – | CCOc1ccc2nc(-c3cccc(OCC(=O)N[C@H](C)CC)c3)nc(Nc3ccc(-c4cn[nH]c4)cc3)c2c1 [Ex. 36, (R)-2-(3-(4-((4-(1H-Pyrazol-4-yl)phenyl)amino)-6-ethoxyquinazolin-2-yl)phenoxy)-N-(sec-butyl)acetamide] | –
11 | 62.1 | 59.2 | 53.5 | – | COCCOc1ccc2nc(-c3cccc(OCC(=O)NC(C)C)c3)nc(Nc3ccc(-c4cn[nH]c4)cc3)c2c1 [Ex. 31, 2-(3-(4-((4-(1H-Pyrazol-4-yl)phenyl)amino)-6-(2-methoxyethoxy)quinazolin-2-yl)phenoxy)-N-isopropylacetamide] | –
12 | 105 | 66.8 | 112 | – | CCC(C)NC(=O)COc1cccc(-c2nc(Nc3ccc(-c4cn[nH]c4)cc3)c3cc(OC)ccc3n2)c1 (centres unmarked) [Ex. 22, 2-(3-(4-((4-(1H-pyrazol-4-yl)phenyl)amino)-6-methoxyquinazolin-2-yl)phenoxy)-N-(sec-butyl)acetamide] | –
13 | 30.3 | 50.9 | 30.7 | – | CC[C@@H](C)NC(=O)COc1cccc(-c2nc(Nc3ccc(-c4cn[nH]c4)cc3)c3cc(OCCOC)ccc3n2)c1 [Ex. 49, (R)-2-(3-(4-((4-(1H-pyrazol-4-yl)phenyl)amino)-6-(2-methoxyethoxy)quinazolin-2-yl)phenoxy)-N-(sec-butyl)acetamide] | –
14 | 30.7 | 41.6 | 31.2 | – | CCC(C)NC(=O)COc1cccc(-c2nc(Nc3ccc(-c4cn[nH]c4)cc3)c3cc(OCCOC)ccc3n2)c1 (centres unmarked) [Ex. 42, 2-(3-(4-((4-(1H-pyrazol-4-yl)phenyl)amino)-6-(2-methoxyethoxy)quinazolin-2-yl)phenoxy)-N-(sec-butyl)acetamide] | –
